Assay results: PubChem BioAssay (NCI)
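Assay format: 96-well plates, 48-hour exposure. GI50 marks 50% less growth. Definition used: TGI = concentration required for complete inhibition of growth.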

How the values were obtained:
Assay in all cases: DTP human tumour cell line panel, 48 h
M14 melanoma = tested on: M14 melanoma
NCI-H460 lung = tested on: NCI-H460 lung
LOX IMVI melanoma = tested on: LOX IMVI melanoma
CCRF-CEM leukemia = tested on: CCRF-CEM leukemia
HCC-2998 colon = tested on: HCC-2998 colon
786-0 renal = tested on: 786-0 renal
SN12C renal = tested on: SN12C renal
NCI-H522 lung = tested on: NCI-H522 lung
SK-MEL-5 melanoma = tested on: SK-MEL-5 melanoma
A549 NSCLC = tested on: A549 NSCLC

| Compound | GI50 (M14 melanoma) [µM] | TGI (M14 melanoma) [µM] | GI50 (NCI-H460 lung) [µM] | TGI (NCI-H460 lung) [µM] | GI50 (LOX IMVI melanoma) [µM] | TGI (LOX IMVI melanoma) [µM] | GI50 (CCRF-CEM leukemia) [µM] | TGI (CCRF-CEM leukemia) [µM] | GI50 (HCC-2998 colon) [µM] | TGI (HCC-2998 colon) [µM] | GI50 (786-0 renal) [µM] | TGI (786-0 renal) [µM] | GI50 (SN12C renal) [µM] | TGI (SN12C renal) [µM] | GI50 (NCI-H522 lung) [µM] | TGI (NCI-H522 lung) [µM] | GI50 (SK-MEL-5 melanoma) [µM] | TGI (SK-MEL-5 melanoma) [µM] | GI50 (A549 NSCLC) [µM] | TGI (A549 NSCLC) [µM] |
| --- | --- | --- | --- | --- | --- | --- | --- | --- | --- | --- | --- | --- | --- | --- | --- | --- | --- | --- | --- | --- |
| CCOC1Oc2ccccc2-c2oc(=O)c(Sc3ccc(C)cc3)cc21 (stereo not given) | 48.2 | > 100 | 20 | > 100 | 24 | > 100 | 14.5 | 50.2 | 52.2 | > 100 | 36.3 | > 100 | 29.5 | > 100 | 18.4 | 82.9 | 26 | 95.3 | 19.3 | 59 |
| CCN(CC)CCNC(=O)c1cn2ncnc(Oc3ccc(NC(=O)Nc4ccc(Cl)c(C(F)(F)F)c4)c(F)c3)c2c1C | 1.58 | 3.24 | 1.99 | 3.87 | 1.3 | 2.62 | 1.41 | 4.29 | 2.17 | 3.77 | 1.95 | 3.69 | 1.69 | 3.4 | 2.03 | 4.13 | 1.75 | 3.15 | 1.77 | 3.44 |
| Cc1ccc(S(=O)(=O)N/N=C(\c2nc3ccc([N+](=O)[O-])cc3[nH]c2=O)C(O)c2ccccc2Cl)cc1 (stereo not given) | – | > 100 | – | > 100 | – | > 100 | – | > 100 | – | > 100 | – | > 100 | – | > 100 | – | 82.6 | – | > 100 | – | > 100 |
| CC(C)c1ccccc1NC(=O)/C(Cl)=C1/Sc2ccccc2NC1=O | – | > 100 | – | > 100 | – | > 100 | – | 82.8 | – | 93.3 | – | > 100 | – | > 100 | – | 51.8 | – | 78.8 | – | > 100 |
| CCOC(=O)c1ccc(N[C@@H]2c3cc4c(cc3C(C3=CC(=O)C(=O)C(OC)=C3)[C@H]3C(=O)OCC32)OCO4)cc1 (stereo not given in full) | – | 9.96 | – | 5.84 | – | 11.4 | – | > 28.1 | – | 10.9 | – | 4.09 | – | > 21.1 | – | 18.8 | – | 11.7 | – | 5.67 |
| CCCCCCCCCCN=C(c1ccc(N(C)C)cc1)c1ccc(N(C)C)cc1 | 0.328 | 26.4 | 0.437 | 24.5 | 0.601 | > 96.1 | 1.78 | > 77.3 | 5.07 | > 88.6 | 3.61 | 36.8 | 0.83 | 53.4 | 0.352 | 5.94 | 0.67 | 18.4 | 2.53 | > 77.6 |
| Cc1c(C(=O)CSc2nc3ccccc3c(=O)n2-c2ccccc2)c(=O)n(-c2ccccc2)n1C | – | > 100 | – | > 100 | – | > 100 | – | > 100 | – | > 100 | – | 38.9 | – | > 100 | – | 79.5 | – | > 100 | – | > 100 |
| O=C1C=C(O)c2[nH]c(=O)ccc2C1=O | – | > 100 | – | > 100 | – | > 100 | – | > 100 | – | > 100 | – | > 100 | – | > 100 | – | > 100 | – | > 100 | – | > 100 |
| Cc1nnc(N/N=C(/C(=O)C(C#N)c2ccccc2)C(C#N)c2ccccc2)n1N (stereo not given) | – | 31.2 | – | 12.6 | – | 5.65 | – | 15.9 | – | 11 | – | 25 | – | 16.6 | – | 56.1 | – | 32.7 | – | 49.3 |
| CC1(C)N=C(N)N=C(N)N1c1ccc(OCC(=O)Nc2ccccc2)c(Cl)c1 | 13.8 | > 100 | 0.0748 | > 100 | 0.589 | > 100 | 2.17 | > 100 | 4.99 | > 100 | 11.1 | > 100 | 0.647 | > 100 | 3.01 | > 100 | 1.08 | > 100 | 0.0916 | > 71.8 |
| Cc1ccc2nc3c(Cl)c(C)c(=O)cc-3sc2c1 | 37.7 | > 100 | 50.3 | > 100 | – | > 100 | 30.5 | > 100 | > 100 | > 100 | 96.3 | > 100 | 69 | > 100 | – | > 100 | – | > 100 | – | > 100 |
| CC1=C(C(=O)Nc2ccccc2C)C(/C=C/c2ccccc2)C(C(=O)Nc2ccccc2C)=C(C)N1 | – | > 100 | – | > 100 | – | > 100 | – | > 100 | – | > 100 | – | > 100 | – | > 100 | – | > 100 | – | > 100 | – | > 100 |
| Cc1ccccc1Nc1nc2c(s1)C(=O)c1ccccc1C2=O | – | 12.1 | – | 25.3 | – | 5.27 | – | > 37.5 | – | 32.2 | – | 8.47 | – | 6.32 | – | 7.52 | – | 7.12 | – | 27.9 |
| Cc1cc(Nc2nc(SCc3ccc(C(=O)Nc4ccc(F)cc4N)cc3)nn3cccc23)n[nH]1 | 0.289 | 15.7 | 0.395 | > 100 | 0.665 | > 100 | 0.411 | > 100 | 0.677 | 11.5 | 0.466 | 22 | 1.25 | > 100 | 0.0488 | 0.565 | 0.334 | 2.43 | 0.886 | 36.8 |
| C=C(CN1CCc2ccccc2C1)c1ccc(C(=O)Nc2ccccc2N)cc1 | 1.73 | 18.4 | 3.06 | > 32 | 0.316 | 1.2 | 1.96 | 12.7 | 0.0899 | 0.379 | 1.53 | 11.6 | 0.978 | 5.32 | 0.732 | 3.72 | 1.61 | 6.86 | 2.05 | > 50 |
| CCCCCCCCCCCC[n+]1ccccc1 (tested in a mixture with another compound) | 1.1 | – | 1.33 | 3.9 | 0.691 | 2.41 | 0.724 | 4.53 | 0.646 | 2.12 | 1.95 | 5.92 | 1.19 | 3.43 | 0.855 | 5.42 | 0.342 | 1.36 | 1.68 | 4.43 |
